The values below come from patent publication US4525356A, “N-substituted flavone-8-carboxamides” (Hokuriku Pharmaceutical Co., Ltd., priority 1982, dated 1985).

The subject of one series is urinary reflex. Briefly: Supression of urinary reflex (bladder balloon, intraduodenal administration). It is filed as in vivo, male Wister rats. The settings on record: for ED50: Rattus norvegicus, 50% effective dose, suppression of urinary reflex by more than 50%, up and down method, anesthetized male Wister rats, via duodenum, read-out: ID50 (the source's name); for Ratio of Effect: from ID50, Effect of Reference (Reference 1) defined as 1.00. The protocol: According to the method of Kaseda et al. (Rinsho Seiri, 5, 540 (1975)), male Wister rats, weighing approximately 300 g and fasted for 15 to 20 hours prior to experiments, were anesthetized by intraperitoneal injection of 500 mg/Kg of urethane and 50 mg/Kg of α-chloralose, and fixed to a supine position. Then the lower abdomen was opened through a midline incision to expose the bladder, and a balloon (1.5 to 2.0 cm^3) was inserted into the urinary bladder via small incision in the base thereof. The change of inner pressure is recorded via pressure transducer. The urinary reflex was induced by elevating the inner pressure to 10 to 20 cm H2 O. Urine was excreted from the incision of the bladder, where balloon was inserted.
The test compounds were given through polyethylene tube inserted into duodenum via an incision in the fundus.
Mean value of contraction according to the urinary reflex appeared during ten minutes before the administration of the compounds, and at 15, 30, 45 and 60 minutes thereafter, have been investigated for the determination of the effect of the present compounds. The mean value suppressed by more than 50% compared to the initial value has been estimated as effect. ID50 (50% effective dose) was obtained by up and down method.

Another series can be described thus: in vitro. Format: in vitro ADME, male Wister rats. The settings on record: rat, pH 6; for Ratio of Effect (T 1/2): 50 uM; for half-life at 50 µM: small intestinal mucosa homogenate. The protocol: (2) Stability in acidic medium (corresponding to artificial small intestinal juice)
After sacrificing male Wister rats (weighing approximately 300 g), small intestine was taken out and small intestinal mucous membrane was scraped off, and 20 ml of 0.1M phosphate buffer (pH 6.00) were added per 0.5 g of small intestinal mucous membrane (wet weight) to give 2.5% of homogenate.
Test compound was dissolved in the homogenate to give definite concentration (50 uM). With shaking of the obtained mixture at 37° C., sampling was carried out from time to time, and the content of each compound was quantitatively measured by analyzing peak height of each compound by a reversed-phase high performance liquid chromatography. The half-life time of each compound in acidic medium (corresponding to artificial small intestinal juice, pH 6.0) was measured from a graph indicating content change of each compound against time.
The compounds of the present invention and flavoxate (Reference 1) should be absorbed, after p.o. administation, in the small intestine to show medical effect. Therefore, the stability of the compounds against the hydrolyzation according to the nonspecific esterase contained in small intestinal mucous membrane is very important.

The half-life is how long it takes for the measured level to halve. Low values mean fast loss, high ones slow loss. Consider `Cc1c(-c2ccccc2)oc2c(C(=O)NCC(C)N3CCCCC3)cccc2c1=O` (stereo not drawn) [Compound 4], for which, in the series with urinary reflex, the ED50 is 46.7 mg/kg and the “Ratio of Effect” value is reported as 5.83. For the same molecule, in the series “in vitro”, the “Ratio of Effect (T 1/2)” value came to 1276.9 and the half-life at 50 µM was 32.5 days.
The matching figures for `CCN(CC)CCNC(=O)c1cccc2c(=O)c(C)c(-c3ccccc3)oc12` [Compound 1]: 36.7 mg/kg, 7.42, 1066.1 and 27.1 days.
The matching figures for `Cc1c(-c2ccccc2)oc2c(C(=O)NCCN3CCCCC3)cccc2c1=O` [Compound 2]: 26.8 mg/kg, 10.16, 475.4 and 12.1 days.
The matching figures for `CCN(CC)CCN(C)C(=O)c1cccc2c(=O)c(C)c(-c3ccccc3)oc12` [Compound 3]: 46.7 mg/kg, 5.83, 252.1 and 6.41 days.
`Cc1c(-c2ccccc2)oc2c(C(=O)O)cccc2c1=O` [Reference 3, reference compound]: in the series with urinary reflex, the ED50 was found to be 308 mg/kg and the “Ratio of Effect” value worked out at 0.89.
In the case of `CCN(CC)CCNC(=O)c1cccc2c(=O)c(C)c(-c3ccc(OC)cc3)oc12` [Compound 5], in the series on urinary reflex, the ED50 stood at 93.3 mg/kg and the “Ratio of Effect” value worked out at 2.92. In addition, in the series “in vitro”, the “Ratio of Effect (T 1/2)” value was 1177.4 and the half-life at 50 µM is 29.9 days.
Taken in the same sequence, the figures for `Cc1c(-c2ccccc2)oc2c(C(=O)OCCN3CCCCC3)cccc2c1=O` [Reference 1, flavoxate, reference compound] were 272 mg/kg, 1.00, 1.0 and 0.0254 days.
For `CCN(CC)CCOC(=O)c1cccc2c(=O)c(C)c(-c3ccccc3)oc12` [Reference 2, reference compound], in the series on urinary reflex, the ED50 worked out at 325 mg/kg and the “Ratio of Effect” value is on record as 0.84. Further, in the series “in vitro”, the “Ratio of Effect (T 1/2)” value was found to be 2.3 and the half-life at 50 µM was 0.0579 days.
